Reference: article PMC12362111, “Cu/Zn-superoxide dismutase naturally fused with a β-propeller lactonase in Deinococcus radiodurans” (The Journal of Biological Chemistry, 2025)

B1: six-bladed β-propeller domain of DrSOD (DrSOD^β-pro) (domain or fragment, Deinococcus radiodurans, UniProt Q9RYV4 185-462, looked up)
chain: LSVRDYALPGPVDHPEGVAYDAKKGLIYTGSAQNGTIYAINAQSGAVTKFQEGGAYGRQVALGLKVDPQGRLWIAGGAQGTVSILTPDGMTLAVLETPKSPRPYINDLVLAPDGNFYVTDSSRPVIFRVDKALKLTAWLDLAGTPIKYGPGVNLNGIAATPDGKYLLAVQLNTGELWRIDLKTKAVKKVMDGLVNGDGLLLDGRTLYVARNKDQVVAKVSLSADYGSGQLVAQEPLNGLRFPATLAKVGNDLVVTQAQLDRIGGTPETPFKLTRFAKF
notes: β-propeller (SGL) domain of DrSOD (DRA0202), Deinococcus radiodurans, UniProt Q9RYV4, residues Leu185-Phe462; Eluted as a mixture of monomer and dimer; source: E. coli BL21(DE3), purified (cOmplete His-Tag column, HRV3C, gel filtration); not shown: His6, N-terminal, cleaved

Legend:
[1] = target: T1, DrSOD^β-pro (Deinococcus radiodurans, UniProt Q9RYV4); test: pH-indicator (p-nitrophenol, […] nm) lactonase assay; type: biochemical; conditions: pH 7.0, 20 mM CaCl2; 2 mM substrate
T1 construct: gene DR_A0202; C-terminal beta-propeller domain (Leu185-Phe462), N-terminal 6xHis removed with HRV3C, E. coli BL21(DE3), monomer and dimer

[2] = target: the molecule itself; test: SEC-MALS; 25 μM protein loaded on a gel filtration column (LW-803, SHODEX); MN buffer (50 mM MOPS, 100 mM NaCl, pH 7.0) for the holo forms, MN buffer with 5 mM EDTA for the metal-free apo state; monomer against dimer

Row | Molecule | pH-indicator (p-nitrophenol, 405 nm) lactonase assay [1] | stoichiometry N [2]
1 | O=C1Cc2ccccc2O1 [2-coumaranone] | lactonase activity of DrSOD toward 2-coumaranone was attributed to DrSOD^β-pro but not DrSOD^SOD | 
2 | B1 |  | 2
